Test system: ACLP
Experiment: siRNA knockdown of ACLP in differentiating primary lung fibroblasts (Western blot)
Format: cell-based, mouse
Conditions: primary lung fibroblasts transfected day 1 post-isolation, 2 nM siRNA, vs NTC siRNA
Experimental: siRNA. Differentiating primary lung fibroblasts were transfected with 2 nM small interfering RNA (siRNA) targeting ACLP (Dharmacon) ([…]) (SEQ ID NO: 5) on either day 1 or day 2 post-isolation. Fully differentiated primary lung myofibroblasts were transfected at passage 2 or 3 with 2 nM siRNA targeting ACLP. Non-targeting control (NTC) siRNA ([…], […], […], […]) (SEQ ID NO: 6) was used as a control in all experiments. Transfections were performed using RNAiMAX (Invitrogen) according to manufacturer's instructions.
Knockdown of ACLP slows and partially reverts the fibroblast to myofibroblast transition. To determine if ACLP was required for fibroblast to myofibroblast differentiation, siRNA was used to knockdown ACLP expression during myofibroblast differentiation. Freshly isolated wildtype primary lung fibroblasts were transfected on day 1 post-isolation with siRNA targeting ACLP (FIG. 2B) (3).

## GGCUCAAGAUCUACGCAAU (listed as RNA, chemistry not given here) [ACLP siRNA, small interfering RNA targeting mouse ACLP (Dharmacon)]
  reduction in ACLP protein expression: 68%
  reduction of Collagen I levels: 5%
Statistically significant
  reduction in SMA protein expression: 63%

From patent US12139542B2, “Inhibitors of aortic carboxypeptidase-like protein (ACLP)” (TRUSTEES OF BOSTON UNIVERSITY, priority 2014, dated 2024)
